Results as given in patent publication US20100226881A1, “PYRAZOLO[1,5-a]PYRIDINES AND THEIR USE IN CANCER THERAPY” (Auckland Uniservices Limited, priority 2007, published 2010).
Counter-ions that a name gives are not always drawn. Like-named read-outs stand apart in the source and are kept apart here.

Tests used:
p110δ/p85 = p110δ/p85 (Homo sapiens, UniProt O00329); test: Inhibition of isolated enzyme, PI 3-kinase p110δ/p85; assay type: biochemical; conditions: recombinant enzyme, 100 μM ATP, average of two experiments
Chain of p110δ/p85 (O00329 whole entry, species assumed): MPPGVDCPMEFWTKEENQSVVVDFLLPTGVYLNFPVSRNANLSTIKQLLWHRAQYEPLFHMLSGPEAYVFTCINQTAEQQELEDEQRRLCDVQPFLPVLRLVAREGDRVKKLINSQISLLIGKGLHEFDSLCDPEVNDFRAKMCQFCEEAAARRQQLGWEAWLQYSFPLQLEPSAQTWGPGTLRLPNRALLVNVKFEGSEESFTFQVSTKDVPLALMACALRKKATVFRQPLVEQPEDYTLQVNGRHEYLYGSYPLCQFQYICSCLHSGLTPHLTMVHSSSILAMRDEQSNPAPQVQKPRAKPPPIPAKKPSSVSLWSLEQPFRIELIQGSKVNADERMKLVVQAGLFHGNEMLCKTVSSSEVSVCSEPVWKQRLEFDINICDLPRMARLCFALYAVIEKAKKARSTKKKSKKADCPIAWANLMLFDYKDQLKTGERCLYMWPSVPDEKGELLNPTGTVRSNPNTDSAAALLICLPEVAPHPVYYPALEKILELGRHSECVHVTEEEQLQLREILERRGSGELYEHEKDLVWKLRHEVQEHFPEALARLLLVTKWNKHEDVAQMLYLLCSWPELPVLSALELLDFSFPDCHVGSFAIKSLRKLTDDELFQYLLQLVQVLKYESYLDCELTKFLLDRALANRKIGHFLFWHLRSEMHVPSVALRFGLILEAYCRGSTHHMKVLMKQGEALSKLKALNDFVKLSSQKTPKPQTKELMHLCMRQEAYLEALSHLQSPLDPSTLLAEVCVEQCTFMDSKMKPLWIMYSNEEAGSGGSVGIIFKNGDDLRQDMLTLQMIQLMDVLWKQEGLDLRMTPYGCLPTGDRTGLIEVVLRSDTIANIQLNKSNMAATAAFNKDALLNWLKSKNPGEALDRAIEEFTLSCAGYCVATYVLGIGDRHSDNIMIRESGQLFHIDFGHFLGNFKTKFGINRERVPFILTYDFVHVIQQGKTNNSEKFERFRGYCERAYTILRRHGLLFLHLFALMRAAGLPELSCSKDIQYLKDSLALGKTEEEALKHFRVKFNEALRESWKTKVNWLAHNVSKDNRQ
Chain of p110δ/p85 (P27986 whole entry partner, species assumed): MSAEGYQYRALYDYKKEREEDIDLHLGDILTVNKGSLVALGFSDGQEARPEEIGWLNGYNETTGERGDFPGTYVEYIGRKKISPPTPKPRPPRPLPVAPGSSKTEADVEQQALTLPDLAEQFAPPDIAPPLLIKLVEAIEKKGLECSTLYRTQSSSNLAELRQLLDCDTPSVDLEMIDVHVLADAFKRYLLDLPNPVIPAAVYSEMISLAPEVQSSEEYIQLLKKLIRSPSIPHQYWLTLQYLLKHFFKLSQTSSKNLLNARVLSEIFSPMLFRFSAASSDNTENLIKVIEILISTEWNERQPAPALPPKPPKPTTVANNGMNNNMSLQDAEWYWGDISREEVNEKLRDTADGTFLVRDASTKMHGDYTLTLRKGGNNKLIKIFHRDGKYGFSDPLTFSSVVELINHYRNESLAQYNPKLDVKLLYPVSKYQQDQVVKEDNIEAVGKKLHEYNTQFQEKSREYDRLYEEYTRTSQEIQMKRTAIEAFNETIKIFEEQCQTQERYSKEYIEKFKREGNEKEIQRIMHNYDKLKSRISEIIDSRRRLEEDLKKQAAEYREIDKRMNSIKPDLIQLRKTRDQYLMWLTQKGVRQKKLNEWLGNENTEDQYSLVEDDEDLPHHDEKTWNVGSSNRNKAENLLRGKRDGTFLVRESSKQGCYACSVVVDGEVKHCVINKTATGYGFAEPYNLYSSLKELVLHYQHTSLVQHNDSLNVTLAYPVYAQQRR
Description: (§1) Compounds were evaluated for their ability to inhibit the Class I PI 3-kinase enzymes p110δ/p85, p110α/p85 and p110β/p85. Reaction mixtures comprising 0.1 μg of recombinant enzyme, 10 μg of L-α-phosphatidylinositol, the compound (DMSO only or DMSO+compound to a final concentration of 1%), 2× Lipid Kinase Buffer (40 mM Tris-HCl pH 7.4, 200 mM NaCl, 1 mM EDTA) were activated by the addition of an ATP mix (5 mM MgCl2, 100 μM ATP, 0.1 μL [γ^33P]ATP). […] Firstly, 200 μL of chloroform/methanol (1:1) was added, the biphasic reactions mixed and centrifuged briefly, and the inorganic phase was removed and discarded.

NZOV9 = test: Cellular growth inhibition (3H-thymidine), NZOV9; assay type: cell-based; conditions: Homo sapiens, five days, 3H-thymidine incorporation, maximum 20 μM
Description: (§2) The compounds were evaluated against two early passage human cell lines NZB5 and NZOV9, whose development and culture have been described [Marshall et al, Oncol. Res. 2004, 14, 297]. The cells were grown in ITS medium (α-modified minimal essential medium supplemented insulin, transferrin, selenite and 5% fetal bovine serum) and grown on 96-well tissue culture plates under an atmosphere of 5% O2, 5% CO2 and 90% N2. Individual wells contained 500-1000 cells (depending on the growth rate) in a volume of 150 μL. Compounds were added at 10-fold concentration steps to a maximum of 20 μM and plates were incubated for five days, with ^3H-thymidine being added over the last 6 h. Cells were harvested and incorporated radioactivity measured. Duplicate samples were analyzed for each compound dose with multiple control samples. Data were fitted by a least-squares method to an exponential of the form y=y0+ae^−bx, where y is the radioactivity (corrected for background and normalized to 100% of the control) x is the radiation dose, and y0, a and b are variables, and the IC50 value defined as the compound concentration reducing ^3H-thymidine levels by 50%.

p110α/p85 = p110α/p85 (Homo sapiens, UniProt P42336); test: Inhibition of isolated enzyme, PI 3-kinase p110α/p85
Chain of p110α/p85 (P42336 whole entry, species assumed): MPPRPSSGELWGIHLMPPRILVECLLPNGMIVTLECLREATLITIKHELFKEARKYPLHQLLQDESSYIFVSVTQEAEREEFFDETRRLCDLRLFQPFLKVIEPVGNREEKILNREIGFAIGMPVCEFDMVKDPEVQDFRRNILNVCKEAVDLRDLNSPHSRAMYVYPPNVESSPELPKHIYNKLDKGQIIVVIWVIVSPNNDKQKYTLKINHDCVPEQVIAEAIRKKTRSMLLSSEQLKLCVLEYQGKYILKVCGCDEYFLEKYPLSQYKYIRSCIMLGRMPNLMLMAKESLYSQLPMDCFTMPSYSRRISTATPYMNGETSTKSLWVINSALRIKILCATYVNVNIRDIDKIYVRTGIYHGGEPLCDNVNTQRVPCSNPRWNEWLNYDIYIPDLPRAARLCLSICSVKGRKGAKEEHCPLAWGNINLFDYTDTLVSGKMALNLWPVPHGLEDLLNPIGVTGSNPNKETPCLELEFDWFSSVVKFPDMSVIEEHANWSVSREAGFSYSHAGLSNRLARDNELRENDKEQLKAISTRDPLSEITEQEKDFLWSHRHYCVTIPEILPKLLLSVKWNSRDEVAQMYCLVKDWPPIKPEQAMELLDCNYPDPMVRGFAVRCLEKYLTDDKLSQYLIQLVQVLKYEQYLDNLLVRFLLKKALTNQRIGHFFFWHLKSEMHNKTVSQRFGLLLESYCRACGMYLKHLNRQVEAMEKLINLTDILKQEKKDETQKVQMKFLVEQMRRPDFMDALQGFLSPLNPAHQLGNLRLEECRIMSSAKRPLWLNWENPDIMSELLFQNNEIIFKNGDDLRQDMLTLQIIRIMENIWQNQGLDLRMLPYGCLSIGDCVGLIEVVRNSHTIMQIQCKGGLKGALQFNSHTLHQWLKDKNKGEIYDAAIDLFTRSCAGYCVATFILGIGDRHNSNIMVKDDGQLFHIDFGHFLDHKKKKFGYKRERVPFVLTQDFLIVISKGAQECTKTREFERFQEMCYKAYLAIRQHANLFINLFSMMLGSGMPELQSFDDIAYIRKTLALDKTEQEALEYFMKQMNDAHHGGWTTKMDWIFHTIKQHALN
Chain of p110α/p85 (P27986 whole entry partner, species assumed): as the sequence (P27986 whole entry partner, species assumed) above

NZB5 = test: Cellular growth inhibition (3H-thymidine), NZB5; assay type: cell-based; conditions: Homo sapiens, five days, 3H-thymidine incorporation, maximum 20 μM
Description: as §2

p110β/p85 = p110β/p85 (Homo sapiens, UniProt P42338); test: Inhibition of isolated enzyme, PI 3-kinase p110β/p85; assay type: biochemical; conditions: recombinant enzyme, 100 μM ATP, average of two experiments
Chain of p110β/p85 (P42338 whole entry, species assumed): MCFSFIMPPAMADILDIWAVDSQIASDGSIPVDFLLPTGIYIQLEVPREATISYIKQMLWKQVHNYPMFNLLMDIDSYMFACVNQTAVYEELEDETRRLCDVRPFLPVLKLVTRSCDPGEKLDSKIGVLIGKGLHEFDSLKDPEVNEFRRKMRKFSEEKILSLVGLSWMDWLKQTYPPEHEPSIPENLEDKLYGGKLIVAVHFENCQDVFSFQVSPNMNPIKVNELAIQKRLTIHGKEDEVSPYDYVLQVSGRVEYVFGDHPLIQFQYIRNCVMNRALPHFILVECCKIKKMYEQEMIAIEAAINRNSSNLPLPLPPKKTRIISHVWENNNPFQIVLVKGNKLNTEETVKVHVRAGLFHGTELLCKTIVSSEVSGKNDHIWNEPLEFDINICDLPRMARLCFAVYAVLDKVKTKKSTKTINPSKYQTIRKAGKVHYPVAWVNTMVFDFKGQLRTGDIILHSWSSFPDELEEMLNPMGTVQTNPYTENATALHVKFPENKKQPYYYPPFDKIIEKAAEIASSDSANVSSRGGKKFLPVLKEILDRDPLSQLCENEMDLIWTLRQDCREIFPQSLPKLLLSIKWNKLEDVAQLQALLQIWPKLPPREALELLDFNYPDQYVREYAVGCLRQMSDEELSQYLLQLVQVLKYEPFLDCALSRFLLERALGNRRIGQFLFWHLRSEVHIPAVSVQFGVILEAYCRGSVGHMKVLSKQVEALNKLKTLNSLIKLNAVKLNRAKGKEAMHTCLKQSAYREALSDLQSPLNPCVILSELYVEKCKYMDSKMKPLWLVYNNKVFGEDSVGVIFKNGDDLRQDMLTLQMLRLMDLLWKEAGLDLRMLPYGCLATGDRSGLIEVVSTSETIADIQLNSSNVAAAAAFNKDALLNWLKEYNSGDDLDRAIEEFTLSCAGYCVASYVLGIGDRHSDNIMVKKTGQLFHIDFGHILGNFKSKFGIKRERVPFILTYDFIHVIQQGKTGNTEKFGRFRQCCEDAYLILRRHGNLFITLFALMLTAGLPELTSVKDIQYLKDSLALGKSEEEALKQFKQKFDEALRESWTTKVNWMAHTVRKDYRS
Chain of p110β/p85 (P27986 whole entry partner, species assumed): as the sequence (P27986 whole entry partner, species assumed) above
Description: as §1

[1] = read-out: IC50 (nM) p110α, recombinant enzyme, 100 μM ATP, average of two experiments

IC50 (p110δ/p85) | IC50 (p110α/p85; [1]) | IC50 (p110β/p85) | Structure (SMILES) | IC50 (NZOV9) | IC50 (NZB5) | IC50 (p110α/p85)
3400 nM | 190 nM | – | Cc1ccc([N+](=O)[O-])cc1S(=O)(=O)N(C)N=Cc1cnn2ccccc12 [E1, N,2-Dimethyl-5-nitro-N′-(pyrazolo[1,5-a]pyridin-3-ylmethylene)benzene-sulfonohydrazide] | 0.66 µM | 0.47 µM | –
640 nM | 110 nM | > 1000 nM | Cc1ccn2ncc(C=NN(C)S(=O)(=O)c3cc([N+](=O)[O-])ccc3C)c2c1 [E2, N,2-Dimethyl-N′-((5-methylpyrazolo[1,5-a]pyridin-3-yl)methylene)-5-nitro-benzenesulfonohydrazide] | 0.07 µM | 0.05 µM | –
> 1000 nM | 870 nM | > 1000 nM | Cc1ccn2nc(C)c(C=NN(C)S(=O)(=O)c3cc([N+](=O)[O-])ccc3C)c2c1 [E4, N′-((2,5-Dimethylpyrazolo[1,5-a]pyridin-3-yl)methylene)-N,2-dimethyl-5-nitrobenzenesulfonohydrazide] | 20 µM | 15 µM | –
790 nM | 260 nM | > 1000 nM | COC(=O)c1ccn2ncc(C=NN(C)S(=O)(=O)c3cc([N+](=O)[O-])ccc3C)c2c1 [E6, Methyl 3-((2-methyl-2-(2-methyl-5-nitrophenylsulfonyl)hydrazono)methyl)pyrazolo[1,5-a]pyridine-5-carboxylate] | 1.5 µM | 1.8 µM | –
> 1000 nM | 230 nM | > 1000 nM | COc1ccn2ncc(C=NN(C)S(=O)(=O)c3cc([N+](=O)[O-])ccc3C)c2c1 [E9, N′-((5-Methoxypyrazolo[1,5-a]pyridin-3-yl)methylene)-N,2-dimethyl-5-nitrobenzenesulfonohydrazide] | 0.52 µM | 0.94 µM | –
> 1000 nM | 330 nM | > 1000 nM | Cc1ccc([N+](=O)[O-])cc1S(=O)(=O)N(C)N=Cc1cnn2ccc(C3CC3)cc12 [E17, N′-((5-cyclopropylpyrazolo[1,5-a]pyridin-3-yl)methylene)-N,2-dimethyl-5-nitrobenzenesulfonohydrazide] | 0.67 µM | 0.74 µM | –
43 nM | 1.4 nM | 47 nM | C#Cc1ccn2ncc(C=NN(C)S(=O)(=O)c3cc([N+](=O)[O-])ccc3C)c2c1 [E18, N′-((5-Ethynylpyrazolo[1,5-a]pyridin-3-yl)methylene)-N,2-dimethyl-5-nitrobenzenesulfonohydrazide] | 0.11 µM | 0.16 µM | –
340 nM | 86 nM | 870 nM | Cc1ccc(F)cc1S(=O)(=O)N(C)N=Cc1cnn2ccc(C#N)cc12 [E27, N′-((5-Cyanopyrazolo[1,5-a]pyridin-3-yl)methylene)-5-fluoro-N,2-dimethylbenzenesulfonohydrazide] | 14 µM | > 20 µM | –
40 nM | 1.8 nM | 300 nM | CC(C)c1ccc([N+](=O)[O-])cc1S(=O)(=O)N(C)N=Cc1cnn2ccc(C#N)cc12 [E33, N′-((5-Cyanopyrazolo[1,5-a]pyridin-3-yl)methylene)-2-isopropyl-N-methyl-5-nitrobenzenesulfonohydrazide] | 0.26 µM | 0.19 µM | –
– | – | – | CN(N=Cc1cnn2ccc(C#N)cc12)S(=O)(=O)c1cc([N+](=O)[O-])ccc1Cl [E34, 2-Chloro-N′-((5-cyanopyrazolo[1,5-a]pyridin-3-yl)methylene)-N-methyl-5-nitrobenzenesulfonohydrazide] | 0.35 µM | 0.88 µM | –
25 nM | 3 nM | 23 nM | Cc1ccc(C#N)cc1S(=O)(=O)N(CCO)N=Cc1cnn2ccc(C#N)cc12 [E40, 5-Cyano-N′-((5-cyanopyrazolo[1,5-a]pyridin-3-yl)methylene)-N-(2-hydroxyethyl)-2-methylbenzenesulfonohydrazide] | 0.62 µM | 3.2 µM | –
580 nM | 13 nM | 620 nM | Cc1ccc([N+](=O)[O-])cc1S(=O)(=O)NN=Cc1cnn2ccc(C#N)cc12 [E42, N′-((5-Cyanopyrazolo[1,5-a]pyridin-3-yl)methylene)-2-methyl-5-nitro-benzenesulfonohydrazide] | 4.9 µM | 2.5 µM | –
130 nM | 30 nM | 200 nM | Cc1ccc([N+](=O)[O-])cc1S(=O)(=O)N(CCN(C)C)N=Cc1cnn2ccc(C#N)cc12 [E46, N′-((5-Cyanopyrazolo[1,5-a]pyridin-3-yl)methylene)-N-(2-(dimethylamino)ethyl)-2-methyl-5-nitrobenzenesulfonohydrazide] | 0.4 µM | 0.37 µM | –
10 nM | 4.5 nM | 230 nM | Cc1ccc([N+](=O)[O-])cc1S(=O)(=O)N(CCN1CCOCC1)N=Cc1cnn2ccc(C#N)cc12 [E47, N′-((5-Cyanopyrazolo[1,5-a]pyridin-3-yl)methylene)-2-methyl-N-(2-morpholinoethyl)-5-nitrobenzenesulfonohydrazide] | 0.55 µM | 0.51 µM | –
26 nM | 9 nM | > 1000 nM | CN(N=Cc1cnn2ccc(C#N)cc12)S(=O)(=O)c1cc([N+](=O)[O-])ccc1NCCN1CCOCC1 [E58, N′-((5-Cyanopyrazolo[1,5-a]pyridin-3-yl)methylene)-N-methyl-2-(2-morpholinoethylamino)-5-nitrobenzenesulfonohydrazide hydrochloride] | > 20 µM | 9.4 µM | –
320 nM | 55 nM | > 1000 nM | CN(N=Cc1cnn2ccc(C#N)cc12)S(=O)(=O)c1cc([N+](=O)[O-])ccc1NCCc1c[nH]cn1 [E63, 2-(2-(1H-Imidazol-4-yl)-ethylamino)-N′-((5-cyanopyrazolo[1,5-a]pyridin-3-yl)methylene)-N-methyl-5-nitrobenzenesulfonohydrazide hydrochloride] | 0.61 µM | 0.82 µM | –
440 nM | 9.6 nM | 580 nM | CN(N=Cc1cnn2ccc(C#N)cc12)S(=O)(=O)c1cc([N+](=O)[O-])ccc1NCc1cccnc1 [E65, N′-((5-Cyanopyrazolo[1,5-a]pyridin-3-yl)methylene)-N-methyl-5-nitro-2-(pyridin-3-ylmethylamino)benzenesulfonohydrazide hydrochloride] | 0.68 µM | 1.1 µM | –
200 nM | – | 5600 nM | CN(N=Cc1cnn2ccc(C#N)cc12)S(=O)(=O)c1cc([N+](=O)[O-])ccc1OCc1ccccn1 [E71, N′-((5-Cyanopyrazolo[1,5-a]pyridin-3-yl)methylene)-N-methyl-5-nitro-2-(pyridin-2-ylmethoxy)benzenesulfonohydrazide hydrochloride] | 0.66 µM | 1.3 µM | 5.8 nM
210 nM | 3.4 nM | 35 nM | CN(C)c1ccc([N+](=O)[O-])cc1S(=O)(=O)N(C)N=Cc1cnn2ccc(Br)cc12 [E73, N′-((5-Bromopyrazolo[1,5-a]pyridin-3-yl)methylene)-2-(dimethylamino)-N-methyl-5-nitrobenzenesulfonohydrazide] | 0.31 µM | 0.11 µM | –
350 nM | 32 nM | 2900 nM | CN(N=Cc1cnn2ccc(Br)cc12)S(=O)(=O)c1cc([N+](=O)[O-])ccc1OCCN1CCOCC1 [E74, N′-((5-Bromopyrazolo[1,5-a]pyridin-3-yl)methylene)-N-methyl-2-(2-morpholinoethoxy)-5-nitrobenzenesulfonohydrazide hydrochloride] | 0.55 µM | 0.27 µM | –
380 nM | 10 nM | 360 nM | CN(C)CCN(C)c1ccc(C#N)cc1S(=O)(=O)N(C)N=Cc1cnn2ccc(C#N)cc12 [E77, 5-Cyano-N′-((5-cyanopyrazolo[1,5-a]pyridin-3-yl)methylene)-2-((2-(dimethylamino)ethyl)(methyl)amino)-N-methylbenzenesulfonohydrazide hydro-chloride] | 0.05 µM | 0.06 µM | –

Structure (SMILES) | IC50 (p110δ/p85) | IC50 (p110α/p85; [1]) | IC50 (p110β/p85) | IC50 (NZOV9) | IC50 (NZB5) | IC50 (p110α/p85)
Cc1ccc([N+](=O)[O-])cc1S(=O)(=O)N(C)N=Cc1cnn2ccc(I)cc12 [E15, N′-((5-Iodopyrazolo[1,5-a]pyridin-3-yl)methylene)-N,2-dimethyl-5-nitro-benzenesulfonohydrazide] | 240 nM | – | 720 nM | 0.05 µM | 0.04 µM | 23 nM
